According to US9066518B2, “Heterocyclic compounds as pesticides” (Bayer CropScience AG, priority 2009, dated 2015):
Like-named read-outs stand apart in the source and are kept apart here.

Legend:
[1] = tested on: green peach aphid (Myzus persicae); experiment: Myzus test (spray treatment); type: in vivo; conditions: foliar, 144 h, read-out: activity (effect in %, aphids killed)
Method: (§1) Solvents: 78 parts by weight of acetone
• 1.5 parts by weight of dimethylformamide Emulsifier 0.5 part by weight of alkylaryl polyglycol ether
To produce a suitable preparation of active compound, 1 part by weight of active compound is mixed with the stated amounts of solvents and emulsifier, and the concentrate is diluted with emulsifier-containing water to the desired concentration. Discs of leaves of Chinese cabbage (Brassica pekinensis) which are infested by all stages of the green peach aphid (Myzus persicae) are sprayed with an active compound preparation of the desired concentration.
After 6 days, the effect in % is determined. 100% means that all aphids have been killed; 0% means that none of the aphids has been killed.

[2] = tested on: larvae of the mustard beetle (Phaedon cochleariae); experiment: Phaedon test (spray treatment); type: in vivo; conditions: application rate 500 g/ha; after 7 days; Chinese cabbage leaf discs
Source text: Solvents: 78 parts by weight of acetone • • 1.5 parts by weight of dimethylformamide Emulsifier: 0.5 part by weight of alkylaryl polyglycol ether […] Discs of leaves of Chinese cabbage (Brassica pekinensis) are sprayed with an active compound preparation of the desired concentration and, after drying, populated with larvae of the mustard beetle (Phaedon cochleariae).

[3] = tested on: caterpillars of the armyworm (Spodoptera frugiperda); experiment: Spodoptera frugiperda test (spray treatment); type: in vivo; conditions: application rate 500 g/ha; after 7 days; maize leaf discs
Method: as §1
(§2) • 1.5 parts by weight of dimethylformamide Emulsifier: 0.5 part by weight of alkylaryl polyglycol ether
To produce a suitable preparation of active compound, 1 part by weight of active compound is mixed with the stated amounts of solvents and emulsifier, and the concentrate is diluted with emulsifier-containing water to the desired concentration. Discs of maize leaves (Zea mays) are sprayed with an active compound preparation of the desired concentration and, after drying, populated with caterpillars of the armyworm (Spodoptera frugiperda).
After 7 days, the effect in % is determined. 100% means that all caterpillars have been killed; 0% means that none of the caterpillars has been killed.

[4] = logP determination (neutral / HCOOH); conditions: HCOOH (formic acid), logP (HCOOH), HCOOH
[5] = tested on: greenhouse red spider mite (Tetranychus urticae); experiment: Tetranychus test; OP-resistant (spray treatment); type: in vivo; conditions: application rate 500 g/ha, after 6 days, bean leaf discs
Method: as §1, §2
To produce a suitable preparation of active compound, 1 part by weight of active compound is mixed with the stated amounts of solvents and emulsifier, and the concentrate is diluted with emulsifier-containing water to the desired concentration. Discs of bean leaves (Phaseolus vulgaris) which are infested by all stages of the greenhouse red spider mite (Tetranychus urticae) are sprayed with an active compound preparation of the desired concentration.
After 6 days, the effect in % is determined. 100% means that all spider mites have been killed; 0% means that none of the spider mites has been killed.

[6] = application rate 500 g/ha, after 6 days, Chinese cabbage leaf discs

SMILES	chromatographic logP [4]	pest or weed control at 500 g/ha ([1]; in Brassica rapa) [%]	logP (physchem)	pest or weed control at 500 g/ha [1, 6] [%]	activity (effect in %, beetle larvae killed) [2] [%]	activity (effect in %, caterpillars killed) [3] [%]	activity (effect in %, spider mites killed) [5] [%]
c1cncc(-n2cc(-c3cccc(-c4ncon4)n3)cn2)c1 [Example 5, 2-[1,2,4]Oxadiazol-3-yl-6-(1-pyridin-3-yl-1H-pyrazol-4-yl)pyridine]		100	1.54				
c1cncc(-n2cc(-c3cccc(-c4nccnn4)n3)cn2)c1 [Example 7, 3-[6-(1-Pyridin-3-yl-1H-pyrazol-4-yl)pyridin-2-yl]-[1,2,4]triazine]		100	1.32				
Cn1c(C(F)(F)F)nn(-c2cccc(-c3cnn(-c4cccnc4)c3)n2)c1=O [Example 16]	2.1			90	100	100	
FC(F)(F)c1ccc(-c2cnn(-c3cccnc3)c2)nc1 [Example 22]	2.38			100	100		

The next lines start with results.

chromatographic logP [4]	SMILES	pest or weed control at 500 g/ha ([1]; in Brassica rapa) [%]	logP (physchem)	pest or weed control at 500 g/ha [1, 6] [%]	activity (effect in %, beetle larvae killed) [2] [%]	activity (effect in %, caterpillars killed) [3] [%]	activity (effect in %, spider mites killed) [5] [%]
2.18	COC(=O)CN(C)c1cccc(-c2cnn(-c3cccnc3)c2)n1 [Example 32]			100		100	
1.17	c1cnc(-c2cccc(-c3cnn(-c4cncnc4)c3)n2)nc1 [Example 34]			100			90
